Among the data in patent publication US12331040B2 (Karyopharm Therapeutics Inc., priority 2013, dated 2025) are IC50 values, retold here.

Common to all, as to assay: MTT cell proliferation assay
Holding throughout (format): cell-based
(Tetrazolium dyes change colour on reduction, which living cells bring about.)

For one test, the system named is MS751 cells. Conditions: Homo sapiens, MS751, MS751 cells, approximately 64-72 hours incubation. Summed up:
(§1)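 5,000-10,000 cells/well, overnight attach; 8 conc., 1 nM–30 μM; MTT ~4 h; formazan solubilized, OD 490 nm; % inhibition = (1−(ODo/OD))×100 vs neg. control; mostly duplicate, mean±SE.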

For the next test, the system named is 3T3 cells. Conditions: Mus musculus, NIH3T3, approximately 64-72 hours incubation. An outline of the steps: as §1
For another test, the system named is Z138 cells. Particulars: Homo sapiens, Z-138, Z138 cells, approximately 64-72 hours incubation. Summed up: as §1
Setting [1] is: read-out: MTT Assay IC50, MS-751.
The mark [2] stands for this setting: read-out: MTT Assay IC50, Z-138.
Where [3] appears, read: read-out: MTT Assay IC50 MS-751.

By IC50 is commonly meant the concentration that gives 50% inhibition.

Read-outs that look alike come from different tables or passages of the source. A value given as a limit tells only on which side of the number the result lay.

With `N#Cc1cccc(-c2cc(-c3ccc(C(=O)N4CCC(F)(F)CC4)cc3)cc3cc(CNC(=O)/C=C/c4ccc(N)nc4)oc23)c1` [Compound 732, (E)-3-(6-aminopyridin-3-yl)-N-((7-(3-cyanophenyl)-5-(4-(4,4-difluoropiperidine-1-carbonyl)phenyl)benzofuran-2-yl)methyl)acrylamide], the IC50 with MS751 cells (setting [1]) is under 100 nM; in the test on 3T3 cells (read-out: MTT Assay IC50, 3T3), 0.1 to 5 µM; with Z138 cells (setting [2]), under 100 nM.

With `Nc1ccc(/C=C/C(=O)NCc2cc3cc(-c4ccc(C(=O)N5CCC(F)(F)CC5)cn4)cc(Cl)c3o2)cn1` [Compound 591, (E)-3-(6-aminopyridin-3-yl)-N-((7-chloro-5-(5-(4,4-difluoropiperidine-1-carbonyl)pyridin-2-yl)benzofuran-2-yl)methyl)acrylamide], the values for the IC50 with MS751 cells (setting [3]), with 3T3 cells (read-out: MTT Assay IC50 3T3) and in the test with Z138 cells (read-out: MTT Assay IC50 Z-138) were 100 to 5000 nM, over 10 µM and 100 to 5000 nM, respectively.

Take `Nc1ccc(/C=C/C(=O)NCc2cc3c(Cl)cc(-c4ccc(C(=O)N5CCC(F)(F)CC5)cc4)cc3o2)cn1` [Compound 714]: the IC50 is 100 to 5000 nM in the test on MS751 cells (setting [1]); over 10 µM in the test on 3T3 cells (read-out: MTT Assay IC50, 3T3); 100 to 5000 nM in the test with Z138 cells (setting [2]).

As to `Cc1cc(F)ncc1-c1cc(-c2ccc(C(=O)N3CCC(F)(F)CC3)cc2)cc2cc(CNC(=O)/C=C/c3ccc(N)nc3)oc12` [Compound 743, (E)-3-(6-aminopyridin-3-yl)-N-((5-(4-(4,4-difluoropiperidine-1-carbonyl)phenyl)-7-(6-fluoro-4-methylpyridin-3-yl)benzofuran-2-yl)methyl)acrylamide], the IC50 with MS751 cells (setting [1]) is under 100 nM; in the test on 3T3 cells (read-out: MTT Assay IC50, 3T3), 0.1 to 5 µM; with Z138 cells (setting [2]), under 100 nM.

For `Nc1ccc(/C=C/C(=O)NCc2cc3cc(-c4ccc(C(=O)NC5CCC(F)(F)CC5)cn4)cc(C(F)(F)F)c3o2)cn1` [Compound 629, (E)-6-(2-((3-(6-aminopyridin-3-yl)acrylamido)methyl)-7-(trifluoromethyl)benzofuran-5-yl)-N-(4,4-difluorocyclohexyl)nicotinamide], the IC50 was 100 to 5000 nM in the test with MS751 cells (setting [3]), over 10 µM in the test with 3T3 cells (read-out: MTT Assay IC50 3T3) and 100 to 5000 nM in the test on Z138 cells (read-out: MTT Assay IC50 Z-138).

Turning to `Nc1ccc(/C=C/C(=O)NCc2cc3cc(-c4ccc(C(=O)N5CCCCC5)cc4)cc(Cl)c3o2)cn1` [Compound 600, (E)-3-(6-aminopyridin-3-yl)-N-((7-chloro-5-(4-(piperidine-1-carbonyl)phenyl)benzofuran-2-yl)methyl)acrylamide], the half-maximal inhibitory concentration (IC50) is 5000 to 10000 nM with MS751 cells (setting [3]), over 10 µM with 3T3 cells (read-out: MTT Assay IC50 3T3) and 100 to 5000 nM with Z138 cells (read-out: MTT Assay IC50 Z-138).

With `CC1(F)CCN(C(=O)c2ccc(-c3cc(C(F)(F)F)c4oc(CNC(=O)/C=C/c5ccc(N)nc5)cc4c3)nc2)C1` (stereo not drawn) [Compound 617, (E)-3-(6-aminopyridin-3-yl)-N-((5-(5-(3-fluoro-3-methylpyrrolidine-1-carbonyl)pyridin-2-yl)-7-(trifluoromethyl)benzofuran-2-yl)methyl)acrylamide], the results for the IC50 with MS751 cells (setting [3]), with 3T3 cells (read-out: MTT Assay IC50 3T3) and with Z138 cells (read-out: MTT Assay IC50 Z-138) were 100 to 5000 nM, over 10 µM and under 100 nM, respectively.

With `Nc1ccc(/C=C/C(=O)NCc2cc3cc(-c4ccc(C(=O)N5CC6(COC6)C5)cc4)cc(C(F)(F)F)c3o2)cn1` [Compound 611, (E)-N-((5-(4-(2-oxa-6-azaspiro[3.3]heptane-6-carbonyl)phenyl)-7-(trifluoromethyl)benzofuran-2-yl)methyl)-3-(6-aminopyridin-3-yl)acrylamide], the IC50 was under 100 nM in the test with MS751 cells (setting [3]), over 10 µM in the test with 3T3 cells (read-out: MTT Assay IC50 3T3) and under 100 nM in the test on Z138 cells (read-out: MTT Assay IC50 Z-138).

With `CN1CCN(C(=O)c2cnc(-c3cc(Cl)c4oc(CNC(=O)/C=C/c5ccc(N)nc5)cc4c3)nc2)CC1` [Compound 586], the figures for the IC50 in the test with MS751 cells (setting [3]), with 3T3 cells (read-out: MTT Assay IC50 3T3) and with Z138 cells (read-out: MTT Assay IC50 Z-138) were 100 to 5000 nM, over 10 µM and 100 to 5000 nM, respectively.

Regarding `O=C(/C=C/c1cccnc1)NCc1cc2cc(-c3ccc(C(=O)N4CCC(F)(F)CC4)cc3)cc(-c3ccncc3)c2o1` [Compound 723, (E)-N-((5-(4-(4,4-difluoropiperidine-1-carbonyl)phenyl)-7-(pyridin-4-yl)benzofuran-2-yl)methyl)-3-(pyridin-3-yl)acrylamide], the IC50 in the test on MS751 cells (setting [1]) was under 100 nM; with 3T3 cells (read-out: MTT Assay IC50, 3T3) it was under 0.1 µM; in the test on Z138 cells (setting [2]) it was under 100 nM.

Regarding `CC1(O)CN(C(=O)c2ccc(-c3cc(C(F)(F)F)c4oc(CNC(=O)/C=C/c5ccc(N)nc5)cc4c3)nc2)C1` [Compound 621, (E)-3-(6-aminopyridin-3-yl)-N-((5-(5-(3-hydroxy-3-methylazetidine-1-carbonyl)pyridin-2-yl)-7-(trifluoromethyl)benzofuran-2-yl)methyl)acrylamide], the IC50 was 100 to 5000 nM in the test with MS751 cells (setting [3]), over 10 µM in the test on 3T3 cells (read-out: MTT Assay IC50 3T3) and 100 to 5000 nM in the test on Z138 cells (read-out: MTT Assay IC50 Z-138).

For `Nc1ccc(/C=C/C(=O)NCc2cc3cc(-c4ccc(C(=O)N5CCC(F)(F)CC5)cc4)cc(-c4ccc(F)cc4Cl)c3o2)cn1` [Compound 738, (E)-3-(6-aminopyridin-3-yl)-N-((7-(2-chloro-4-fluorophenyl)-5-(4-(4,4-difluoropiperidine-1-carbonyl)phenyl)benzofuran-2-yl)methyl)acrylamide], the IC50 with MS751 cells (setting [1]) is under 100 nM; in the test with 3T3 cells (read-out: MTT Assay IC50, 3T3) it was 0.1 to 5 µM; in the test on Z138 cells (setting [2]) it was under 100 nM.

Turning to `COc1cc(-c2ccc(C(=O)N3CCC(F)(F)CC3)cn2)cc2cc(CNC(=O)/C=C/c3ccc(N)nc3)oc12` [Compound 651, (E)-3-(6-aminopyridin-3-yl)-N-((5-(5-(4,4-difluoropiperidine-1-carbonyl)pyridin-2-yl)-7-methoxybenzofuran-2-yl)methyl)acrylamide], the IC50 with MS751 cells (setting [3]) is under 100 nM; with 3T3 cells (read-out: MTT Assay IC50 3T3), over 10 µM; in the test with Z138 cells (read-out: MTT Assay IC50 Z-138), under 100 nM.

Turning to `O=C(/C=C/c1cccnc1)NCc1cc2cc(-c3ccc(C(=O)N4CCC(F)(F)CC4)cc3)cc(OC(F)(F)F)c2o1` [Compound 687, (E)-N-((5-(4-(4,4-difluoropiperidine-1-carbonyl)phenyl)-7-(trifluoromethoxy)benzofuran-2-yl)methyl)-3-(pyridin-3-yl)acrylamide], the IC50 with MS751 cells (setting [1]) was under 100 nM; in the test on 3T3 cells (read-out: MTT Assay IC50, 3T3) it was 0.1 to 5 µM; in the test with Z138 cells (setting [2]), under 100 nM.

On to `Nc1ccc(/C=C/C(=O)NCc2cc3cc(-c4cncc(C(=O)N5CCOCC5)c4)cc(Cl)c3o2)cn1` [Compound 534, (E)-3-(6-aminopyridin-3-yl)-N-((7-chloro-5-(5-(morpholine-4-carbonyl)pyridin-3-yl)benzofuran-2-yl)methyl)acrylamide], for which the 50% inhibitory concentration (IC50) in the test on MS751 cells (setting [3]) was 100 to 5000 nM; with 3T3 cells (read-out: MTT Assay IC50 3T3) it was over 10 µM; with Z138 cells (read-out: MTT Assay IC50 Z-138) it was 100 to 5000 nM.

On to `Nc1ccc(/C=C/C(=O)NCc2cc3cc(-c4ccc(C(=O)N5CCC(F)(F)CC5)cn4)cc(-c4ccc(F)cc4F)c3o2)cn1` [Compound 710, (E)-3-(6-aminopyridin-3-yl)-N-((7-(2,4-difluorophenyl)-5-(5-(4,4-difluoropiperidine-1-carbonyl)pyridin-2-yl)benzofuran-2-yl)methyl)acrylamide], for which the IC50 in the test on MS751 cells (setting [1]) is under 100 nM; in the test on 3T3 cells (read-out: MTT Assay IC50, 3T3), 0.1 to 5 µM; in the test with Z138 cells (setting [2]) it was under 100 nM.

For `O=C(/C=C/c1cccnc1)NCc1cc2cc(-c3ccc(C(=O)N4CCC(F)(F)CC4)cn3)cc(-c3ccncc3)c2o1` [Compound 674], the IC50 in the test with MS751 cells (setting [1]) was under 100 nM; with 3T3 cells (read-out: MTT Assay IC50, 3T3), under 0.1 µM; with Z138 cells (setting [2]), under 100 nM.

For the compound `Nc1ccc(/C=C/C(=O)NCc2cc3cc(-c4ccc(C(=O)N5CC(O)(C(F)(F)F)C5)cn4)cc(C(F)(F)F)c3o2)cn1` [Compound 747, (E)-3-(6-aminopyridin-3-yl)-N-((5-(5-(3-hydroxy-3-(trifluoromethyl)azetidine-1-carbonyl)pyridin-2-yl)-7-(trifluoromethyl)benzofuran-2-yl)methyl)acrylamide], the IC50 with MS751 cells (setting [1]) is 100 to 5000 nM; in the test on 3T3 cells (read-out: MTT Assay IC50, 3T3), over 10 µM; in the test on Z138 cells (setting [2]), 100 to 5000 nM.

For `Nc1ccc(/C=C/C(=O)NCc2cc3cc(-c4ccc(C(=O)N5CCC(O)(C(F)(F)F)C5)cc4)cc(C(F)(F)F)c3o2)cn1` (stereo not drawn) [Compound 606, (E)-3-(6-aminopyridin-3-yl)-N-((5-(4-(3-hydroxy-3-(trifluoromethyl)pyrrolidine-1-carbonyl)phenyl)-7-(trifluoromethyl)benzofuran-2-yl)methyl)acrylamide], the IC50 in the test on MS751 cells (setting [3]) was 100 to 5000 nM; in the test on 3T3 cells (read-out: MTT Assay IC50 3T3), over 10 µM; in the test with Z138 cells (read-out: MTT Assay IC50 Z-138) it was 100 to 5000 nM.

Regarding `Nc1ccc(/C=C/C(=O)NCc2cc3cc(-c4ccc5occc5c4)cc(-c4ccc(F)cc4F)c3o2)cn1` [Compound 759, (E)-3-(6-aminopyridin-3-yl)-N-((7-(2,4-difluorophenyl)-5,5′-bibenzofuran-2-yl)methyl)acrylamide], the IC50 in the test on MS751 cells (setting [1]) was 100 to 5000 nM; in the test on 3T3 cells (read-out: MTT Assay IC50, 3T3), over 10 µM; with Z138 cells (setting [2]), under 100 nM.

With `Nc1ccc(/C=C/C(=O)NCc2cc3cc(-c4ccc(C(=O)N5CCC(F)(F)CC5)cc4)cc(Cl)c3o2)cn1` [Compound 596, (E)-3-(6-aminopyridin-3-yl)-N-((7-chloro-5-(4-(4,4-difluoropiperidine-1-carbonyl)phenyl)benzofuran-2-yl)methyl)acrylamide], the results for the IC50 in the test on MS751 cells (setting [3]), in the test on 3T3 cells (read-out: MTT Assay IC50 3T3) and with Z138 cells (read-out: MTT Assay IC50 Z-138) were 100 to 5000 nM, over 10 µM and 100 to 5000 nM, respectively.

As to `Nc1ccc(/C=C/C(=O)NCc2cc3cc(-c4ccc(C(=O)N5CC6CC(C5)O6)cn4)cc(C(F)(F)F)c3o2)cn1` [Compound 626, (E)-N-((5-(5-(6-oxa-3-azabicyclo[3.1.1]heptane-3-carbonyl)pyridin-2-yl)-7-(trifluoromethyl)benzofuran-2-yl)methyl)-3-(6-aminopyridin-3-yl)acrylamide], the IC50 with MS751 cells (setting [3]) is 100 to 5000 nM; with 3T3 cells (read-out: MTT Assay IC50 3T3), over 10 µM; with Z138 cells (read-out: MTT Assay IC50 Z-138), 100 to 5000 nM.
